Measurements: patent US8362000B2, “Azetidinyl diamides as monoacylglycerol lipase inhibitors” (Janssen Pharmaceutica NV, priority 2009, dated 2013)
Changes are numbered by the printed parent chain. Read-outs that look alike come from different tables or passages of the source.

Columns and labels:
[1] = target: T1, purified wild type MGL (wt-MGLL 6H-11-313) (Homo sapiens, UniProt Q99685)
T1 sequence (Q99685 1-303): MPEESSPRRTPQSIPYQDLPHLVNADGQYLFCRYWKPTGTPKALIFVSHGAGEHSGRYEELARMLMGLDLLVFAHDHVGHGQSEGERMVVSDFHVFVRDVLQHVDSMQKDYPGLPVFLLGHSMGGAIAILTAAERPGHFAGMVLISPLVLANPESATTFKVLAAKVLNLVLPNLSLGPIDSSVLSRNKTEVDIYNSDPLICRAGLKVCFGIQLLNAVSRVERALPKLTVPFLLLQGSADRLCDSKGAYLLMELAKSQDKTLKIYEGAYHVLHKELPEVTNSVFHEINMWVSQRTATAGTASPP

mutant MGL = target: T2, mutant MGL (Homo sapiens, UniProt Q99685, L169S/L176S); assay: MGL ThermoFluor assay - mutant; type: binding
T2 sequence (Q99685 1-303 L169S/L176S): T1 sequence (Q99685 1-303) with L169S, L176S

[2] = ThermoFluor thermal stability binding assay, read-out: MGL mutant ThermoFluor Kd
[3] = ThermoFluor concentration-response, read-out: MGL mutant ThermoFluor Kd

SMILES | IC50 [1] [nM] | other results
CC1CN(C2CN(C(=O)c3ccc(-c4ccccc4)cc3)C2)CCN1C(=O)c1nccs1 (centres unmarked) [Cpd 117] | 4230 | 
O=C(c1ccccc1)N1CCN(C2CN(C(=O)c3cc4cc(C(F)(F)F)ccc4s3)C2)CC1 [Cpd 124] | 321 | 
O=C(c1cccc(-c2ccc(C(F)(F)F)cc2)c1)N1CC(N2CCN(C(=O)c3nccs3)CC2)C1 [Cpd 149] | 76.9 | 
O=C(c1ccc(-c2ccccc2)cc1)N1CC(N2CCN(C(=O)C3CC3)CC2)C1 [Cpd 303] | 173 | 
O=C(c1ccccc1)N1CCN(C2CN(C(=O)c3ccc(Oc4ccccc4Cl)nc3)C2)CC1 [Cpd 521] | 2190 | 
Cc1cn(-c2ccc(F)cc2)c2ccc(C(=O)N3CC(N4CCN(C(=O)c5ccccc5)CC4)C3)cc12 [Cpd 584] | 105 | 
Cn1cc(-c2ccccc2)c2ccc(C(=O)N3CC(N4CCN(C(=O)c5ccccc5)CC4)C3)cc21 [Cpd 585] | 107 | 
O=C(c1ccccc1)N1CCN(C2CN(C(=O)c3ccc4c(-c5ccccc5)ncnc4c3)C2)CC1 [Cpd 604] | 1840 | 
O=C(c1ccccc1)N1CC(N2CCN(C(=O)c3ccc(-c4ccccc4)cc3)CC23CC3)C1 [Cpd 606] | 2040 | 
Cc1nc2cc(C(=O)N3CC(N4CCN(C(=O)c5ccccc5)CC4)C3)ccc2n1-c1ccccc1 [Cpd 635] | 838 | 
O=C(c1ccc(Oc2cc(C(F)(F)F)ccn2)cc1)N1CC(N2CCN(C(=O)c3nccs3)CC2)C1 [Cpd 652] | 7 | 
O=C(c1ccc(Oc2ccccc2Cl)nc1)N1CC(N2CCN(C(=O)c3nccs3)CC2)C1 [Cpd 708] | 106 | 
O=C(c1nccs1)N1CCN(C2CN(C(=O)c3nc4cc(Cl)ccc4s3)C2)CC1 [Cpd 728] | 231 | 
Cc1cccc(Nc2ccccc2C(=O)N2CC(N3CCN(C(=O)c4nccs4)CC3)C2)c1C [Cpd 744] | 335 | 
O=C(c1nccs1)N1CCN(C2CN(C(=O)c3ccccc3Nc3cccc(F)c3)C2)CC1 [Cpd 754] | 447 | 
O=C(c1nccs1)N1CC(N2CCN(C(=O)c3nc4cc(Cl)ccc4s3)CC2)C1 [Cpd 764] | 636 | 
Cn1c2ccccc2c2cc(C(=O)N3CC(N4CCN(C(=O)c5cscn5)CC4)C3)ccc21 [Cpd 767] | 691 | 
O=C(c1nccs1)N1CCN(C2CN(C(=O)c3ccccc3Nc3cccc(C(F)(F)F)c3)C2)CC1 [Cpd 768] | 697 | 
O=C(c1nccs1)N1CCN(C2CN(C(=O)c3ccccc3Nc3ccccc3)C2)CC1 [Cpd 781] | 1040 | 
O=C(c1ccc2[nH]c3c(c2c1)CCCC3)N1CC(N2CCN(C(=O)c3cscn3)CC2)C1 [Cpd 817] | 2700 | 

SMILES | IC50 [1] [nM] | other results
O=C(c1cscn1)N1CC(N2CCN(C(=O)c3nc4cc(Cl)ccc4s3)CC2)C1 [Cpd 821] | 2850 | 
O=C(c1ccc(S(=O)(=O)c2ccccc2)cc1)N1CC(N2CCN(C(=O)c3cscn3)CC2)C1 [Cpd 822] | 2860 | 
COc1cccc2c(C)c(C(=O)N3CCN(C4CN(C(=O)c5nccs5)C4)CC3)[nH]c12 [Cpd 846] | 6450 | 
Cc1c(-c2ccccc2)oc2c(C(=O)N3CCN(C4CN(C(=O)c5nccs5)C4)CC3c3ccccc3)cccc2c1=O (centres unmarked) [Cpd 854] | 8410 | 
O=C(c1cscn1)N1CCN(C2CN(C(=O)c3nc4cc(Cl)ccc4s3)C2)CC1 [Cpd 855] | 8440 | 
Cc1c(C(=O)N2CC(N3CCN(C(=O)c4cscn4)CC3)C2)oc2c(F)cccc12 [Cpd 871] | 13300 | 
O=C(c1ccc2c(c1)CCN(Cc1cccc(C(F)(F)F)c1)C2)N1CC(N2CCN(C(=O)c3nccs3)CC2)C1 [Cpd 879] | < 5 | 
O=C(c1ccc2[nH]c(CCc3ccccc3)nc2c1)N1CC(N2CCN(C(=O)c3nccs3)CC2)C1 [Cpd 1000] | 111 | 
O=C(c1ccc2nc(Cc3ccccc3)[nH]c2c1)N1CCN(C2CN(C(=O)c3nccs3)C2)CC1 [Cpd 1001] | 1400 | 
O=C(c1ccc2nc(CCc3ccccc3)[nH]c2c1)N1CCN(C2CN(C(=O)c3cscn3)C2)CC1 [Cpd 1002] | 5290 | 
O=C(c1ccc2[nH]c(Cc3ccccc3)nc2c1)N1CC(N2CCN(C(=O)c3cscn3)CC2)C1 [Cpd 1003] | 1610 | 
O=C(c1ccc2[nH]c(Cc3ccccc3)nc2c1)N1CC(N2CCN(C(=O)c3nccs3)CC2)C1 [Cpd 1004] | 167 | 
Cn1cc(Cc2cccc(F)c2)c2ccc(C(=O)N3CC(N4CCN(C(=O)c5nccs5)CC4)C3)cc21 [Cpd 1033, 3-(3-Fluorobenzyl)-1-methyl-6-({3-[4-(1,3-thiazol-2-ylcarbonyl)piperazin-1-yl]azetidin-1-yl}carbonyl)-1H-indole] | < 5 | 
Cn1cc(-c2cccc(C(F)(F)F)c2)c2ccc(C(=O)N3CC(N4CCN(C(=O)c5cscn5)CC4)C3)cc21 [Cpd 1084] | 9 | 
Cn1cc(-c2cccc(C(F)(F)F)c2)c2ccc(C(=O)N3CC(N4CCN(C(=O)c5nccs5)CC4)C3)cc21 [Cpd 1100] | 12 | 
Cc1cc(-c2cccc(C(F)(F)F)c2)ccc1C(=O)N1CCN(C2CN(C(=O)c3cscn3)C2)CC1 [Cpd 1212] | 204 | 
Cc1ccc(-n2nc(C)c(C(=O)N3CC(N4CCN(C(=O)c5nccs5)CC4)C3)n2)cc1 [Cpd 1214] | 209 | 
Cc1nn(-c2ccc(Cl)cc2)nc1C(=O)N1CC(N2CCN(C(=O)c3nccs3)CC2)C1 [Cpd 1218] | 222 | 
O=C(c1ccc2nc(-c3ccccc3)oc2c1)N1CCN(C2CN(C(=O)c3cscn3)C2)CC1 [Cpd 1275] | 1720 | 
O=C(c1nccs1)N1CCN(C2CN(C(=O)c3cnn(-c4ccccc4)c3-c3ccccc3)C2)CC1 [Cpd 1297] | 3310 | 

SMILES | IC50 [1] [nM] | other results
O=C(c1cscn1)N1CCN(C2CN(C(=O)c3cccc4nc(-c5cccc(Cl)c5)[nH]c34)C2)CC1 [Cpd 1389] |  | Kd (mutant MGL; [2]): 0.422 µM
O=C(c1nccs1)N1CCN(C2CN(C(=O)c3cnn(-c4ccccc4)c3C(F)(F)F)C2)CC1 [Cpd 1392] |  | Kd (mutant MGL; [2]): 0.659 µM
O=C(c1cscn1)N1CCN(C2CN(C(=O)c3csc(-c4cc(Cl)cc(Cl)c4)n3)C2)CC1 [Cpd 1395] |  | Kd (mutant MGL; [2]): 1.81 µM
Cc1oc(-c2ccccc2)cc1C(=O)N1CC(N2CCN(C(=O)c3cscn3)CC2)C1 [Cpd 1396] |  | Kd (mutant MGL; [2]): 0.317 µM
O=C(c1cscn1)N1CCN(C2CN(C(=O)c3cc(-c4ccccc4)oc3C(F)(F)F)C2)CC1 [Cpd 1397] |  | Kd (mutant MGL; [2]): 0.5 µM
O=C(c1ccc(-c2ccccc2)cc1)N1CC(N2CCN(C(=O)C3CCCC3)CC2)C1 [Cpd 1398] |  | Kd (mutant MGL; [2]): 0.182 µM
O=C(c1ccc(-c2ccccc2)cc1)N1CCN(C2CN(C(=O)c3ncccn3)C2)CC1 [Cpd 1400, 2-({3-[4-(Biphenyl-4-ylcarbonyl)piperazin-1-yl]azetidin-1-yl}carbonyl)pyrimidine] |  | Kd (mutant MGL; [3]): 4.07 µM
O=C(c1ccc(-c2ccccc2)cc1)N1CCN(C2CN(C(=O)c3nccs3)C2)C(c2ccccc2)C1 (centres unmarked) [Cpd 1401, 4-(Biphenyl-4-ylcarbonyl)-2-phenyl-1-[1-(1,3-thiazol-2-ylcarbonyl)azetidin-3-yl]piperazine] |  | Kd (mutant MGL; [3]): 1.25 µM
O=C(c1ccc(-c2ccccc2)cc1)N1CCN(C2CN(C(=O)c3cscn3)C2)C(c2ccccc2)C1 (centres unmarked) [Cpd 1402, 4-(Biphenyl-4-ylcarbonyl)-2-phenyl-1-[1-(1,3-thiazol-4-ylcarbonyl)azetidin-3-yl]piperazine] |  | Kd (mutant MGL; [3]): 2 µM
O=C(c1cscn1)N1CCN(C2CN(C(=O)c3nc(-c4ccccc4)oc3C(F)(F)F)C2)CC1 [Cpd 1403] |  | Kd (mutant MGL; [2]): 1.69 µM
O=C(c1ccc(-c2ccccc2)cc1)N1CC(N2CCN(C(=O)c3nccs3)C(c3ccccc3)C2)C1 (centres unmarked) [Cpd 1404, 4-[1-(Biphenyl-4-ylcarbonyl)azetidin-3-yl]-2-phenyl-1-(1,3-thiazol-2-ylcarbonyl)piperazine] |  | Kd (mutant MGL; [3]): > 31.2 µM
Cc1nc(-c2cccc(C(F)(F)F)c2)sc1C(=O)N1CC(N2CCN(C(=O)c3nccs3)CC2)C1 [Cpd 1407, 1-[1-({4-Methyl-2-[3-(trifluoromethyl)phenyl]-1,3-thiazol-5-yl}carbonyl)azetidin-3-yl]-4-(1,3-thiazol-2-ylcarbonyl)piperazine] |  | Kd (mutant MGL; [2]): 0.005 µM
Cc1cc(-n2ccc3cc(C(=O)N4CC(N5CCN(C(=O)c6cscn6)CC5)C4)ccc32)ccc1C#N [Cpd 1421, 2-Methyl-4-[5-({3-[4-(1,3-thiazol-4-ylcarbonyl)piperazin-1-yl]azetidin-1-yl}carbonyl)-1H-indol-1-yl]benzonitrile] |  | Kd (mutant MGL; ThermoFluor, compound concentration measured by qNMR, read-out: MGL mutant ThermoFluor qKd (μM) (using qNMR conc.)): 0.044 µM
O=C(c1ccc2c(c1)C(Cc1ccccc1)(Cc1ccccc1)C(=O)N2Cc1ccccc1)N1CC(N2CCN(C(=O)c3nccs3)CC2)C1 [Cpd 1431] |  | Kd (mutant MGL; [3]): 0.035 µM
O=C(c1ccc(Cc2ccccc2)cc1)N1CC(N2CCN(C(=O)c3nccs3)C(c3ccccc3)C2)C1 (centres unmarked) [Cpd 1464, 4-{1-[(4-Benzylphenyl)carbonyl]azetidin-3-yl}-2-phenyl-1-(1,3-thiazol-2-ylcarbonyl)piperazine] |  | Kd (mutant MGL; [3]): > 31.2 µM
O=C(c1cscn1)N1CCN(C2CN(C(=O)c3cnn(-c4ccccc4)c3C(F)(F)F)C2)CC1 [Cpd 1477] |  | Kd (mutant MGL; [2]): > 31.2 µM
O=C(c1ccc(-c2ccccc2)cc1)N1CC(N2CCN(C(=O)c3ncccn3)CC2)C1 [Cpd 1478] |  | Kd (mutant MGL; [2]): > 31.2 µM
O=C(c1ccc(-c2ccccc2)cc1)N1CC(N2CCN(C(=O)c3cscn3)C(c3ccccc3)C2)C1 (centres unmarked) [Cpd 1481] |  | Kd (mutant MGL; [2]): > 31.2 µM
O=C(c1ccccc1)N1CCN(C2CN(C(=O)c3ccc(Oc4ccccn4)cc3)C2)CC1 [Cpd 1484] |  | Kd (mutant MGL; [3]): 20 µM
